Laboratory results as given in patent publication US20260008818A1, “CYCLIC PEPTIDE OR SALT THEREOF, AND USES THEREOF” (FUJIFILM Corporation, priority 2023, published 2026).
Numbered stars: 1 amine (or outer) side, 2 acyl side, 3 side chain; on linkers, the order of the positions; unused ones are H or OH. Bridge positions count the residues as written; N and C are the ends. Ends that are not written are not given here. acetyl = K(acetyl): lysine side chain modified with a haloacetyl group whose halogen is replaced by the thiol of another residue, giving a thioether ring, O=C(C[*:1])[*:2]; COCH2 = acetyl group that carries the bridge

What follows are substances tested on Recombinant Human FGFR1 alpha (IIIc) Fc Chimera Protein (assay: Binding affinity of enzymatically synthesized cyclic peptide to FGFR by ELISA). Conditions: luminescence signal at reaction concentration 10 nmol/L, SEQ ID NO: 39 standardized to 1, enzyme synthesis product.
Procedure: The binding affinity of the cyclic peptide to FGFR was evaluated using an ELISA method.
The binding affinity of the enzymatically synthesized cyclic peptide to FGFR was measured by evaluating the amount of the cyclic peptide bound to FGFR by ELISA.
First, 5 ng of Recombinant Human FGFR1 alpha (IIIc) Fc Chimera Protein CF (R&D systems, 658-FR-050) was immobilized in each well of a 96-well plate, and blocked with Pierce Protein-Free (PBS) Blocking Buffer (Thermo, 37572), and a cyclic peptide diluted with Can Get Signal Immunoreaction Enhancer Solution I (TOYOBO, NKB-101) was then added and reacted at room temperature for 3 hours. After washing with 0.05% Tween 20-containing phosphate buffered saline (PBS), an anti-Myc antibody (Cell Signaling, 14038S) diluted with Can Get Signal Immunoreaction Enhancer Solution II (TOYOBO, NKB-101) was added and reacted at room temperature for 2 hours. After washing with 0.05% Tween 20-containing PBS, SuperSignal ELISA Femto Substrate (Thermo, 37075) was added, and the luminescence amount was measured. The dose-response relationship was calculated from using the difference between the luminescence amount in the well in which FGFR was immobilized and the luminescence amount in the well in which FGFR was not immobilized, and the concentration of the cyclic peptide at the time of reaction, and the binding affinity to FGFR was evaluated according to the following evaluation criteria. The evaluation result preferably satisfies the evaluation criteria A, B, or C.
In a case where a value of a luminescence signal emitted by the cyclic peptide set forth in SEQ ID NO: 39 at a reaction concentration of 10 nmol/L is standardized to 1, evaluation criteria of the luminescence signal value emitted by the cyclic peptide at a reaction concentration of 10 nmol/L is as follows. • A: 0.7 or more • B: 0.5 or more and less than 0.7 • C: 0.1 or more and less than 0.5 • D: less than 0.1.

| Substance | Evaluation result of binding affinity to FGFR |
| --- | --- |
| 101 (HCSWERLQFHGHEAPFRVK(COCH2)V; thioether 2-19 (inferred)) [compound 101] | A (0.7 or more) |
| 197 (HCSYERLQFHGHEAPFNVK(COCH2)V; thioether 2-19 via Ac) [compound 197] | A (0.7 or more) |
| 335 (HCSYERLIFRGHIAPFWVK(COCH2)V; thioether 2-19 (inferred)) [compound 335] | A (0.7 or more) |
| 121 (HCSYPRLQFHGHEAPFRVK(COCH2)V; thioether 2-19 (inferred)) [compound 121] | A (0.7 or more) |
| 295 (MCSYERLQFHGHEAPFRVK(COCH2)V; thioether 2-19 (inferred)) [compound 295] | A (0.7 or more) |
| 364 (WCQLRFQGHLAPFIIK(COCH2)S; thioether 2-16) [compound 364] | C (0.1 or more and less than 0.5) |
| 367 (WCRTWLWFEIPFWYQK(COCH2)E; thioether 2-16) [compound 367] | C (0.1 or more and less than 0.5) |
| 358 (NCWVQWFLSGHVVPFLVSLK(COCH2)S; thioether 2-20) [compound 358] | C (0.1 or more and less than 0.5) |
| 251 (DCIWRVTISGHLAPFWFK(COCH2)Y; thioether 2-18 (inferred)) [compound 251] | B (0.5 or more and less than 0.7) |
| 345 (QCYLPFWFYQKARLLFHYIK(COCH2)S; thioether 2-20) [compound 345] | C (0.1 or more and less than 0.5) |
| 144 (HCSYERHQFHGHEAPFRVK(COCH2)V; thioether 2-19 (inferred)) [compound 144] | A (0.7 or more) |
| 131 (HCSYTRLQFHGHEAPFRVK(COCH2)V; thioether 2-19 (inferred)) [compound 131] | A (0.7 or more) |
| 235 (HK(COCH2)TWERLIFRGHIAPFWVCR; thioether 2-19 (inferred)) [compound 235] | A (0.7 or more) |
| 214 (HCSYERLQFHGHEAPFRVK(COCH2)F; thioether 2-19 via Ac; not fully specified) [compound 214] | B (0.5 or more and less than 0.7) |
| 241 (HK(COCH2)TWERLIFLGHIAPFWVCV; thioether 2-19 (inferred)) [compound 241] | B (0.5 or more and less than 0.7) |
| 215 (HCSYERLQFHGHEAPFRVK(COCH2)W; thioether 2-19 via Ac; not fully specified) [compound 215] | B (0.5 or more and less than 0.7) |
| 183 (HCSYERLQFHGHWAPFRVK(COCH2)V; thioether 2-19 via Ac) [compound 183] | A (0.7 or more) |
| 238 (HK(COCH2)TWERLIFLGHVAPFWVCR; thioether 2-19 (inferred)) [compound 238] | B (0.5 or more and less than 0.7) |
| 292 (HCSYERLQFHGHEAPFKVK(COCH2)V; thioether 2-19 (inferred)) [compound 292] | B (0.5 or more and less than 0.7) |
| 314 (HCTFERLIFLGHIAPFWVK(COCH2)R; thioether 2-19 (inferred)) [compound 314] | C (0.1 or more and less than 0.5) |
| 173 (HCSYERLQFTGHEAPFRVK(COCH2)V; thioether 2-19 (inferred)) [compound 173] | C (0.1 or more and less than 0.5) |
| 50 (WCRLKLLGHDAPFIK(COCH2)W; thioether 2-15 (inferred)) [compound 50] | B (0.5 or more and less than 0.7) |

The remaining lines, values ahead:

| Evaluation result of binding affinity to FGFR | Substance |
| --- | --- |
| C (0.1 or more and less than 0.5) | 122 (HCSYLRLQFHGHEAPFRVK(COCH2)V; thioether 2-19 (inferred)) [compound 122] |
| A (0.7 or more) | 79 (DCSYERLQFHGHEAPFRVKV; not fully specified; Description of Artificial Sequence: Cyclic peptide) [compound 79] |
| B (0.5 or more and less than 0.7) | 110 (HCSYERLQFHGFEAPFRVK(COCH2)V; thioether 2-19 (inferred)) [compound 110] |
| C (0.1 or more and less than 0.5) | 47 (SCWTQLQWQAHLAPFWTK(COCH2)V; thioether 2-18 (inferred)) [compound 47] |
| A (0.7 or more) | 67 (GCSYERLQFHGHEAPFRVK(COCH2)V; thioether 2-19 (inferred)) [compound 67] |
| B (0.5 or more and less than 0.7) | 360 (DCWGWHREFVPFIK(COCH2)I; thioether 2-14) [compound 360] |
| A (0.7 or more) | 150 (HCSYERLYFHGHEAPFRVK(COCH2)V; thioether 2-19 (inferred)) [compound 150] |
| C (0.1 or more and less than 0.5) | 220 (HCSYERLQFHGHEAPFRVK(COCH2)D; thioether 2-19 (inferred)) [compound 220] |
| C (0.1 or more and less than 0.5) | 322 (HCTWERLIFLGHIAPFLVK(COCH2)R; thioether 2-19 (inferred)) [compound 322] |
| C (0.1 or more and less than 0.5) | 161 (HCSYERLQYHGHEAPFRVK(COCH2)V; thioether 2-19 (inferred)) [compound 161] |
| C (0.1 or more and less than 0.5) | 176 (HCSYERLQFHGHGAPFRVK(COCH2)V; thioether 2-19 (inferred)) [compound 176] |
| B (0.5 or more and less than 0.7) | 272 (WCHIAPFLYHDGIQWGHLK(COCH2)V; thioether 2-19 (inferred)) [compound 272] |
| B (0.5 or more and less than 0.7) | 247 (ACKYVPHIFQQHQAPYLVK(COCH2)S; thioether 2-19 (inferred)) [compound 247] |
| B (0.5 or more and less than 0.7) | 132 (HCSYDRLQFHGHEAPFRVK(COCH2)V; thioether 2-19 (inferred)) [compound 132] |
| A (0.7 or more) | 180 (HCSYERLQFHGHVAPFRVK(COCH2)V; thioether 2-19 via Ac) [compound 180] |
| A (0.7 or more) | 305 (HCSYERLQFHGHMAPFRVK(COCH2)V; thioether 2-19 (inferred)) [compound 305] |
| C (0.1 or more and less than 0.5) | 46 (ACWVQYLWHGHAAPFLIK(COCH2)S; thioether 2-18 (inferred)) [compound 46] |
| C (0.1 or more and less than 0.5) | 311 (RCTWERLIFLGHIAPFWVK(COCH2)R; thioether 2-19 (inferred)) [compound 311] |
| B (0.5 or more and less than 0.7) | 128 (HCSYNRLQFHGHEAPFRVK(COCH2)V; thioether 2-19 (inferred)) [compound 128] |
| C (0.1 or more and less than 0.5) | 135 (HCSYEPLQFHGHEAPFRVK(COCH2)V; thioether 2-19 (inferred)) [compound 135] |
| B (0.5 or more and less than 0.7) | 60 (HCSYERLAFHGHEAPFRVK(COCH2)V; thioether 2-19 (inferred)) [compound 60] |
| B (0.5 or more and less than 0.7) | 232 (HK(COCH2)TYERLIFLGHIAPFWVCR; thioether 2-19 (inferred)) [compound 232] |
| A (0.7 or more) | 44 (FCPHIFLGHNAPFLVQK(COCH2)V; thioether 2-17 (inferred)) [compound 44] |
| A (0.7 or more) | 92 (HCTYERLQFHGHEAPFRVK(COCH2)V; thioether 2-19 via acetyl; not fully specified; printed as H-(C)-TYERLQFHGHEAPFRV-(K(acetyl))-V) [compound 92] |
| B (0.5 or more and less than 0.7) | 353 (PCVQQISPHPWGAPFWVVTSK(COCH2)Y; thioether 2-21) [compound 353] |
| A (0.7 or more) | 71 (VCSYERLQFHGHEAPFRVK(COCH2)V; thioether 2-19 (inferred)) [compound 71] |
| B (0.5 or more and less than 0.7) | 288 (HCSYERLQFKGHEAPFRVK(COCH2)V; thioether 2-19 (inferred)) [compound 288] |
| A (0.7 or more) | 212 (HCSYERLQFHGHEAPFRVK(COCH2)I; thioether 2-19 via Ac; not fully specified) [compound 212] |
